Measured values as given in ChEMBL document CHEMBL1138480, “Discovery of highly potent and selective biphenylacylsulfonamide-based beta3-adrenergic receptor agonists and evaluation of physical properties as potential overactive bladder therapies: part 5” (J Med Chem, 2009).
pEC50: −log10 of the molar value.

How the values were obtained:
[1] = Cmax in Beagle dog at 0.10 mg/kg, po by cassette assay; format: ADME, organism-based, Canis lupus familiaris; parameters: dose 0.1 mg/kg, route oral; conditions: in vivo, 0.1 mg/kg
[2] = target: Beta-3 adrenergic receptor (Homo sapiens, UniProt P13945); experiment: Agonist activity at human recombinant beta3 adrenergic receptor expressed in CHO cells assessed as cAMP accumulation by enzyme immunoassay; format: functional, cell-based; conditions: for pEC50: read-out: EC50; for EC50: read-out: pEC50 (converted)
Chain of Beta-3 adrenergic receptor (Homo sapiens, UniProt P13945) (P13945 whole entry): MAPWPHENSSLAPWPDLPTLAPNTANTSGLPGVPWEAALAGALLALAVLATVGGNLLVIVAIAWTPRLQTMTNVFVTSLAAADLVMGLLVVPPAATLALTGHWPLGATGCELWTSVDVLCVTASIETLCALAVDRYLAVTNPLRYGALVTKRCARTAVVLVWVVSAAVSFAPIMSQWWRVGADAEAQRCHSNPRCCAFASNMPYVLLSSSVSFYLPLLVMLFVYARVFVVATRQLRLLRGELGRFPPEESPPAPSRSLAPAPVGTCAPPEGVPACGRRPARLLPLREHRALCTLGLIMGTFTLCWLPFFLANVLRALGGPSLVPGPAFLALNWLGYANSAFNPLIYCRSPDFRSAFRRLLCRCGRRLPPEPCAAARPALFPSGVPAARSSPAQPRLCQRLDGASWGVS

[3] = target: Beta-1 adrenergic receptor (Homo sapiens, UniProt P08588)
Chain of Beta-1 adrenergic receptor (P08588 whole entry): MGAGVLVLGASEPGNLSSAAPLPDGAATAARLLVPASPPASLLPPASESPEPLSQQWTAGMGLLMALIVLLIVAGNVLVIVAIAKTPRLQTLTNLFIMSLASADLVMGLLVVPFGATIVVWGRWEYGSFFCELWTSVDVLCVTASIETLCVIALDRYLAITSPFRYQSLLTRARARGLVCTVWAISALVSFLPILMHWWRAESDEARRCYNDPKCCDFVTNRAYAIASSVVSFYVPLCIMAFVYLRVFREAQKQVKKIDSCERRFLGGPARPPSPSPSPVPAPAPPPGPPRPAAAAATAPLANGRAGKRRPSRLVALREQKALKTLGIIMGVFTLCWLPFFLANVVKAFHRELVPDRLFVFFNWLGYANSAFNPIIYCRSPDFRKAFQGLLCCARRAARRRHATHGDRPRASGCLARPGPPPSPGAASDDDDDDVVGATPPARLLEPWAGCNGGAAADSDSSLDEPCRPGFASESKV
Description: Agonist activity at human recombinant beta-1 adrenergic receptor expressed in CHO cells assessed as cAMP accumulation by enzyme immunoassay

[4] = AUC (0 to 24 hrs) in Beagle dog at 0.10 mg/kg, po by cassette assay; format: ADME, organism-based, Canis lupus familiaris; parameters: time < 24 hr, dose 0.1 mg/kg, route oral; conditions: plasma, 0.1 mg/kg
[5] = Protein binding in Beagle dog serum; format: ADME, cell-free, Canis lupus familiaris; conditions: read-out: PPB (converted)
[6] = Total clearance in Beagle dog at 0.10 mg/kg, iv by cassette assay; format: ADME, organism-based, Canis lupus familiaris; parameters: dose 0.1 mg/kg, route intravenous; conditions: in vivo, 0.1 mg/kg
[7] = target: Beta-3 adrenergic receptor (Canis lupus familiaris, UniProt O02662); experiment: Agonist activity at dog recombinant beta3 adrenergic receptor expressed in CHO cells assessed as cAMP accumulation by enzyme immunoassay; format: functional, cell-based; conditions: for pEC50: read-out: EC50; for EC50: read-out: pEC50 (converted)
Chain of Beta-3 adrenergic receptor (Canis lupus familiaris, UniProt O02662) (O02662 whole entry): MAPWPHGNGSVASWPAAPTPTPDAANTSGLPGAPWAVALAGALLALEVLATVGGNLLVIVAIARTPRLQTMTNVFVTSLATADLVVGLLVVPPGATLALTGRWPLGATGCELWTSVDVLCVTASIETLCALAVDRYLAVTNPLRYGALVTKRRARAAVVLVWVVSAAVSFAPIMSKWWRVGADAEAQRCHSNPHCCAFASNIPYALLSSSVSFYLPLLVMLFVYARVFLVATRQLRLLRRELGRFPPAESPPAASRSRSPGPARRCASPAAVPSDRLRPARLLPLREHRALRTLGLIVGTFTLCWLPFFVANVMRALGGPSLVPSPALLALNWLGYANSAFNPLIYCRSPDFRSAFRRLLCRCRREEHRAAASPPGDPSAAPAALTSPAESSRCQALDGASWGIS

[8] = AUC (0 to 24 hrs) in rat at 0.32 mg/kg, po by cassette assay; format: ADME, organism-based; parameters: time < 24 hr, dose 0.32 mg/kg, route oral; conditions: plasma
[9] = Total clearance in rat at 0.32 mg/kg, iv by cassette assay; format: ADME, organism-based; parameters: dose 0.32 mg/kg, route intravenous; conditions: in vivo
[10] = target: Beta-2 adrenergic receptor (Homo sapiens, UniProt P07550)
Chain of Beta-2 adrenergic receptor (P07550 whole entry): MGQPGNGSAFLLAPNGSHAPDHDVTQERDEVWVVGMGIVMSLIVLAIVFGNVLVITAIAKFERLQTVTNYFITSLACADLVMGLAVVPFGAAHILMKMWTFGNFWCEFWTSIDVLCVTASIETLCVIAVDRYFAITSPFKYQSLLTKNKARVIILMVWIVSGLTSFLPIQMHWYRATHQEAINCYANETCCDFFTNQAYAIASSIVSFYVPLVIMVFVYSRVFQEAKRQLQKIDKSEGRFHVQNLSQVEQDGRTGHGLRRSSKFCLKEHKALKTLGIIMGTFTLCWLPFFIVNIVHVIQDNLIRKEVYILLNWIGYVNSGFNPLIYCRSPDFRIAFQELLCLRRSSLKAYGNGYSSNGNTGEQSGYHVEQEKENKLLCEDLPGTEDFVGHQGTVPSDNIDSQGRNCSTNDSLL
Description: Agonist activity at human recombinant beta2 adrenergic receptor expressed in CHO cells assessed as cAMP accumulation by enzyme immunoassay

Canis familiaris [11] = experiment: Inhibition of carbachol-induced increase in intravesical pressure in Beagle dog OAB model at 10 ug/kg, iv for 30 mins measured for 180 mins; format: functional; conditions: Canis lupus familiaris
[12] = Inhibition of KCl-induced tonic contraction in Beagle dog detrusor muscle strips preincubated for 15 mins before KCl challenge; format: functional; conditions: Canis lupus familiaris; for pEC50: read-out: EC50; for EC50: read-out: pEC50 (converted)
[13] = Cmax in rat at 0.32 mg/kg, po by cassette assay; format: ADME, organism-based; parameters: dose 0.32 mg/kg, route oral; conditions: in vivo
[14] = Terminal half life in rat plasma at 0.32 mg/kg, iv by cassette assay; format: ADME, organism-based; parameters: dose 0.32 mg/kg, route intravenous; conditions: read-out: beta t1/2 (converted)
[15] = Terminal half life in Beagle dog plasma at 0.10 mg/kg, iv by cassette assay; format: ADME, organism-based, Canis lupus familiaris; parameters: dose 0.1 mg/kg, route intravenous; conditions: 0.1 mg/kg, read-out: beta t1/2 (converted)
[16] = Bioavailability in Beagle dog at 0.10 mg/kg, po and iv by cassette assay; format: ADME, organism-based, Canis lupus familiaris; conditions: in vivo, 0.1 mg/kg
[17] = Bioavailability in rat at 0.32 mg/kg, po and iv by cassette assay; format: ADME, organism-based; conditions: in vivo
Canis familiaris [18] = experiment: Inhibition of carbachol-induced increase in intravesical pressure in intraduodenally dosed Beagle dog OAB model for 30 mins measured for 180 mins; format: functional, organism-based; conditions: Canis lupus familiaris
Canis familiaris [19] = experiment: Ratio of Cmax for drug to Cmax for (R)-4'-(2-(2-(3-chlorophenyl)-2-hydroxyethylamino)ethyl)-3-isopropoxybiphenyl-4-carboxylic acid in beagle dog at 0.1 or 0.2 mg/kg, po by cassette assay; format: ADME, organism-based, Canis lupus familiaris; parameters: dose 0.2 mg/kg, route oral; conditions: in vivo
[20] = Total clearance in monkey at 0.32 mg/kg, iv by cassette assay; format: ADME, organism-based, Macaca mulatta; parameters: dose 0.32 mg/kg, route intravenous; conditions: rhesus monkey, in vivo
[21] = Bioavailability in monkey at 0.32 mg/kg, po and iv by cassette assay; format: ADME, organism-based, Macaca mulatta; conditions: rhesus monkey, in vivo
[22] = Ratio of EC50 for inhibition of KCl-induced tonic contraction in anesthetized Beagle dog detrusor muscle strip to EC50 for dog recombinant beta3 adrenergic receptor expressed in CHO cells; parameters: species or system Canis lupus familiaris

Row | SMILES | Cmax [1] [ng/mL] | pEC50 [2] | pEC50 [3] | AUC(0-t) at 24 h [4] [ng·h/mL] | clearance [6] [mL/min/kg] | half-life [15] [h] | bioavailability [16] [%] | other results
1 | CS(=O)(=O)NC(=O)c1ccc(-c2ccc(CCNC[C@H](O)c3ccccc3)cc2)cc1SC1CCCCC1.Cl | 8 | 9.30 | 6.08 | 56.3 | – | – | – | –
2 | CC(C)Sc1cc(-c2ccc(CCNC[C@H](O)c3ccccc3)cc2)ccc1C(=O)O | – | – | – | – | – | – | – | pEC50 [7]: 8.92; pEC50 [12]: 7.96; pEC50 (Canis familiaris [18]): 7.95; ED50 (Canis familiaris [18]): 0.047 mg/kg
3 | CS(=O)(=O)NC(=O)c1ccc(-c2ccc(CCNC[C@H](O)c3cccnc3)cc2)cc1C1CCCC1.Cl.Cl | 1.4 | 9.54 | < 6.00 | 13.4 | 21.8 | 1.4 | 18 | –
4 | CS(=O)(=O)NC(=O)c1ccc(-c2ccc(CCNC[C@H](O)c3ccccc3)cc2)cc1OC1CCCC1 | – | 9.21 | 6.12 | – | – | – | – | –
5 | CC(C)Oc1cc(-c2ccc(CCNC[C@H](O)c3cccnc3)cc2)ccc1C(=O)O | – | – | – | – | – | – | – | Ratio (Canis familiaris [19]): 0.65; EC50 [7]: 10 nM; pEC50 [10]: < 5.00; EC50 [2]: 1.58 nM; EC50 [12]: 7.94 nM
6 | CC(C)Cc1cc(-c2ccc(CCNC[C@H](O)c3ccccc3)cc2)ccc1C(=O)O | – | – | – | – | – | – | – | fraction unbound [5]: 0.14; pEC50 [7]: 8.66; pEC50 [12]: 8.06; pEC50 (Canis familiaris [18]): 7.73; ED50 (Canis familiaris [18]): 0.0459 mg/kg
7 | CC(C)Nc1cc(-c2ccc(CCNC[C@H](O)c3cccnc3)cc2)ccc1C(=O)NS(C)(=O)=O.Cl.Cl.Cl | 1.9 | 9.70 | 6.49 | 10.4 | 16.4 | 2.7 | 12 | –
8 | CS(=O)(=O)NC(=O)c1ccc(-c2ccc(CCNC[C@H](O)c3ccccc3)cc2)cc1CC1CCCCC1.Cl | 27.9 | 9.27 | 6.43 | 230 | 4.9 | 3.9 | 70 | –
9 | CS(=O)(=O)NC(=O)c1ccc(-c2ccc(CCNC[C@H](O)c3cccnc3)cc2)cc1NC1CCCCC1.Cl.Cl.Cl | 10.3 | 10.21 | < 6.00 | 28.4 | 12.4 | 1.3 | 21 | pEC50 [10]: < 5.00
10 | O=C(O)c1ccc(-c2ccc(CCNC[C@H](O)c3cccnc3)cc2)cc1OC1CCCCC1 | – | – | – | – | – | – | – | Ratio (Canis familiaris [19]): 0.48; fraction unbound [5]: 0.11; EC50 [7]: 1.26 nM; pEC50 [10]: < 5.00; EC50 [2]: 0.251 nM; pEC50 [12]: 7.85; EC50 [12]: 5.01 nM; pEC50 (Canis familiaris [18]): 8.40; ED50 (Canis familiaris [18]): 0.065 mg/kg
11 | CC(C)Oc1cc(-c2ccc(CCNC[C@H](O)c3ccccc3)cc2)ccc1C(=O)O | – | – | – | – | – | – | – | inhibition in vivo at 0.01 mg/kg (Canis familiaris [11]): > 70%; pEC50 [12]: 8.17
12 | CC(C)Oc1cc(-c2ccc(CCNC[C@H](O)c3cccnc3)cc2)ccc1C(=O)NS(C)(=O)=O | – | 9.00 | 6.89 | – | – | – | – | –
13 | CS(=O)(=O)NC(=O)c1ccc(-c2ccc(CCNC[C@H](O)c3cnccc3N)cc2)cc1OC1CCCCC1.Cl.Cl | 2.5 | – | – | 26.7 | 34.9 | 6.7 | 54 | clearance [20]: 52 mL/min/kg; AUC(0-t) at 24 h [8]: 6.3 ng·h/mL; clearance [9]: 36.4 mL/min/kg; Cmax [13]: 3.3 ng/mL; half-life [14]: 1.7 h; bioavailability [17]: 5%; ED50 (Canis familiaris [18]): 0.0143 mg/kg; bioavailability [21]: 0%
14 | CS(=O)(=O)NC(=O)c1ccc(-c2ccc(CCNC[C@H](O)c3ccccc3)cc2)cc1OC1CCCCCC1 | – | 9.42 | 6.66 | – | – | – | – | –
15 | CS(=O)(=O)NC(=O)c1ccc(-c2ccc(CCNC[C@H](O)c3ccc(N)cc3)cc2)cc1OC1CCCCC1.Cl.Cl | 17.5 | 9.30 | < 6.00 | 212 | 5 | 5.7 | 68 | EC50 [2]: 0.0631 nM
16 | CC(C)Oc1cc(-c2ccc(CCNC[C@H](O)c3ccc(N)cc3)cc2)ccc1C(=O)NS(C)(=O)=O | – | 8.26 | < 6.00 | – | – | – | – | EC50 [2]: 0.2 nM
17 | CS(=O)(=O)NC(=O)c1ccc(-c2ccc(CCNC[C@H](O)c3ccccc3)cc2)cc1NC1CCCCC1.Cl.Cl | 3.2 | 9.85 | 6.05 | 33.5 | 9.9 | 3.9 | 22 | –
18 | CC(C)Cc1cc(-c2ccc(CCNC[C@H](O)c3cccnc3)cc2)ccc1C(=O)O | – | – | – | – | – | – | – | Ratio (Canis familiaris [19]): 0.36

Now from value to compound, other results behind:

Row | Cmax [1] [ng/mL] | pEC50 [2] | pEC50 [3] | AUC(0-t) at 24 h [4] [ng·h/mL] | clearance [6] [mL/min/kg] | half-life [15] [h] | bioavailability [16] [%] | SMILES | other results
19 | 8.1 | 8.85 | < 6.00 | 91.9 | – | – | – | CCCSc1cc(-c2ccc(CCNC[C@H](O)c3ccccc3)cc2)ccc1C(=O)NS(C)(=O)=O.Cl | –
20 | 24.9 | 9.34 | < 6.00 | 210 | 5.3 | 3.5 | 67 | CC(C)Cc1cc(-c2ccc(CCNC[C@H](O)c3ccccc3)cc2)ccc1C(=O)NS(C)(=O)=O.Cl | fraction unbound [5]: 0.08; pEC50 [7]: 9.06; AUC(0-t) at 24 h [8]: 64.8 ng·h/mL; clearance [9]: 35.2 mL/min/kg; pEC50 [10]: < 5.00; inhibition in vivo at 0.01 mg/kg (Canis familiaris [11]): > 70%; pEC50 [12]: 8.59; Cmax [13]: 6.4 ng/mL; half-life [14]: 2.5 h; bioavailability [17]: 40%; pEC50 (Canis familiaris [18]): 7.85; ED50 (Canis familiaris [18]): 0.0247 mg/kg
21 | 70.3 | 9.22 | < 6.00 | 756 | 2.2 | 4.4 | 98 | CS(=O)(=O)NC(=O)c1ccc(-c2ccc(CCNC[C@H](O)c3ccccc3)cc2)cc1Oc1ccccc1.Cl | pEC50 [7]: 8.54; inhibition in vivo at 0.01 mg/kg (Canis familiaris [11]): 35%
22 | 33.4 | 8.51 | < 6.00 | 562 | 2.3 | 12 | 75 | CC(C)Oc1cc(-c2ccc(CCNC[C@H](O)c3ccccc3)cc2)ccc1C(=O)NS(C)(=O)=O.Cl | pEC50 [7]: 8.31; EC50 [7]: 1 nM; EC50 [2]: 0.631 nM; inhibition in vivo at 0.01 mg/kg (Canis familiaris [11]): 51%
23 | 17.1 | 9.39 | < 6.00 | 211 | 4 | 4.7 | 50 | CS(=O)(=O)NC(=O)c1ccc(-c2ccc(CCNC[C@H](O)c3ccccc3)cc2)cc1C1CCCC1.Cl | –
24 | 13.1 | 9.48 | < 6.00 | 106 | – | – | – | CS(=O)(=O)NC(=O)c1ccc(-c2ccc(CCNC[C@H](O)c3ccccc3)cc2)cc1C1CCCCC1.Cl | –
25 | 5.3 | 9.72 | 6.62 | 50.9 | 5.4 | 4.3 | 14 | CC(C)Sc1cc(-c2ccc(CCNC[C@H](O)c3cccnc3)cc2)ccc1C(=O)NS(C)(=O)=O.Cl.Cl | –
26 | – | 7.74 | 6.14 | – | – | – | – | COc1cc(-c2ccc(CCNC[C@H](O)c3ccccc3)cc2)ccc1C(=O)NS(C)(=O)=O | –
27 | 2.6 | 9.49 | 6.31 | 12 | 35.9 | 0.6 | 21 | CC(C)Cc1cc(-c2ccc(CCNC[C@H](O)c3cccnc3)cc2)ccc1C(=O)NS(C)(=O)=O.Cl.Cl | –
28 | – | 8.55 | 6.80 | – | – | – | – | CCCCCOc1cc(-c2ccc(CCNC[C@H](O)c3ccccc3)cc2)ccc1C(=O)NS(C)(=O)=O | –
29 | 22.2 | 9.37 | < 6.00 | 363 | 3 | 7.8 | 70 | CS(=O)(=O)NC(=O)c1ccc(-c2ccc(CCNC[C@H](O)c3ccccc3)cc2)cc1OC1CCCCC1.Cl | pEC50 [7]: 9.08; EC50 [2]: 0.126 nM; inhibition in vivo at 0.01 mg/kg (Canis familiaris [11]): 58%; pEC50 [12]: < 7.30; EC50 [12]: 12.6 nM; Ratio EC50 [22]: >50
